Results taken from patent US8252781B2, “1,2-diazetidin-3-one derivatives and drugs containing same” (Kowa Company, Ltd., priority 2008, dated 2012).
Where two headings read alike, the source gives them in different places.

Legend:
Type in all cases: biochemical
human 11β-HSD1 = biological target: T1, human 11β-HSD1 (Homo sapiens, UniProt P28845); assay: Enzyme inhibitory activity, human 11β-HSD1 (lysate of stably expressing HEK293 cells, cortisol by competitive ELISA); settings: human 11β-HSD1, cell lysate, 37° C. for 1 hour, read-out: h HSD1 in vitro assay (IC50 uM)
T1 construct: The obtained PCR products of about 0.9 kbp, 1.2 kbp, and 0.9 kbp were subcloned into an expression vector pcDNA3.1+/Zeo; expressed in transfected cells
T1 sequence (P28845 whole entry): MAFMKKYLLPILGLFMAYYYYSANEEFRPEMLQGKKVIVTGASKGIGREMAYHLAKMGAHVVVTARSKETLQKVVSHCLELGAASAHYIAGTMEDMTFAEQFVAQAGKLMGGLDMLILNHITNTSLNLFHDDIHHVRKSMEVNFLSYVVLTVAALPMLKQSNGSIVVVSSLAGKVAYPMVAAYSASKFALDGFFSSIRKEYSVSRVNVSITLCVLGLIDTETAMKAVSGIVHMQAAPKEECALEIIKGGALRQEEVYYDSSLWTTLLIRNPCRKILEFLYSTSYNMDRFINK
Summary of the method: (§1)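 Sonicated lysates of stably transfected cells (diluted to 0.1–0.4 mg/mL before addition) reacted for 1 h at 37 °C in pH 7.4 Tris/sucrose/EGTA/EDTA/MgCl2 buffer with 100 nmol/L cortisone or cortisol and 400 μmol/L NADPH or NAD+, then were heat-stopped at 95 °C. Inhibition rate = 100 minus residual activity.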

human 11β-HSD2 = biological target: T2, human 11β-HSD2 (Homo sapiens, UniProt P80365); assay: Enzyme inhibitory activity, human 11β-HSD2 (lysate of stably expressing HEK293 cells, cortisol by competitive ELISA); settings: Table 1; human 11β-HSD2, cell lysate, 37° C. for 1 hour; read-out: h HSD2 in vitro assay (IC50 uM)
T2 construct: The obtained PCR products of about 0.9 kbp, 1.2 kbp, and 0.9 kbp were subcloned into an expression vector pcDNA3.1+/Zeo; expressed in transfected cells
T2 sequence (P80365 1-405): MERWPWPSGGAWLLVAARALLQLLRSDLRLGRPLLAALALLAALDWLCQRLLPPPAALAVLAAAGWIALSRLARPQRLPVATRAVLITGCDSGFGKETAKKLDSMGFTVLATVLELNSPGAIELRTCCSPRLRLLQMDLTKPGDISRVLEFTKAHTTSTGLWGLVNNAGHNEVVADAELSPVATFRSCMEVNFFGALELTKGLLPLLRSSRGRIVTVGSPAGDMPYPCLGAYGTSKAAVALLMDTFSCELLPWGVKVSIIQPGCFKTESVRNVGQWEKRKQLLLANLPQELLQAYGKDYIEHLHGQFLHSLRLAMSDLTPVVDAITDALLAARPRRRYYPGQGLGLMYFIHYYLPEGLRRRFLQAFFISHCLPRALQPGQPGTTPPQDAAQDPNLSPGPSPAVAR
Procedure: 1. Human 11β-HSD1-, Human 11β-HSD2- and Mouse 11β-HSD1-Gene Clonings and Establishment of Stably Expressing Cells
Human 11β-HSD1-, human 11β-HSD2-, and mouse 11β-HSD1-gene clonings were conducted using as a template a reverse transcription product of human-liver RNA, human-kidney RNA (CELL APPLICATIONS), and mouse-kidney RNA respectively, by means of PCR cloning with reference to nucleotide sequences of Genbank Accession Nos. NM_005525, NM_000196, and NM_008288. The obtained PCR products of about 0.9 kbp, 1.2 kbp, and 0.9 kbp were subcloned into an expression vector pcDNA3.1+/Zeo (Invitrogen).
Human 11β-HSD1- and human 11β-HSD2-expressing vectors were transfected into human kidney-derived cell line, HEK293 cells, using a transfection reagent, jet PEI (Funakoshi). Mouse 11β-HSD1 was transfected to Chinese hamster ovary-derived cell line, CHO-K1 cells. Selection was conducted with 200-400 μg/mL of zeocine (Invitrogen) to provide stably expressing-cell clones. The stably expressing cells were suspended in buffer solution A (20 mmol/L Tris-HCl, pH 7.4, 250 mmol/L sucrose, 1 mmol/L EGTA, 1 mmol/L EDTA, 1 mmol/L MgCl2), sonicated, and then stored at −80° C.
2. Assay of Enzyme Inhibitory Activity
An enzymatic reaction was conducted using a polystyrene 96-well plate. Each well was added with 1 μL of a test agent dissolved in DMSO and then diluted (0.003 to 3 mmol/L), and further added with 10 μL of cell lysate diluted to a concentration of 0.1 mg/mL to 0.4 mg/mL. Next, 90 μL of buffer solution A containing substrate (100 nmol/L cortisone or cortisol) and coenzyme (400 μmol/L NADPH or NAD+) was added and the mixture was incubated at 37° C. for 1 hour. The enzymatic reaction was stopped by treating at 95° C. for 3 minutes. Cortisol that was present in the reaction solution was determined by a competitive ELISA shown below.
Anti-rabbit IgG antibody (Chemi-con) diluted to 2 μg/mL with carbonate buffer solution (pH 9.6) was added in 100 μL each to a 96-well immuno plate (Nunc) and immobilized by an incubation at 4° C. overnight. 50 μL of enzymatic reaction solution was put onto the plates, and further, anti-cortisol antibody (Cosmo Bio) and HRP-labeled cortisol (Cosmo Bio), diluted with buffer solution B (25 mmol/L Tris-HCl pH 7.4, 137 mmol/L NaCl, 2.68 mmol/L KCl), were added in 50 μL respectively and incubated at 4° C. overnight. After washed three times with buffer solution B containing 0.05% Tween 20, the plates were allowed to develop color by adding 100 μL of color reagent, TMB (Moss). The color reaction was stopped by 25 μL of 1 mol/L sulfuric acid and the absorbance was determined at 450 nm with a microplate reader (Molecular Device, VersaMax).
The values of human 11β-HSD1, human 11β-HSD2, and mouse 11β-HSD1 activities were subtracted from 100, and the resultant values were regarded as the respective 11β-HSD inhibition rates of example compounds. […] The comparison of human 11β-HSD1 and human 11β-HSD2 inhibiting activities is shown in Table 1, and the comparison of human 11β-HSD1 and mouse 11β-HSD1 inhibiting activities is shown in Table 2.

mouse 11β-HSD1 = biological target: T3, mouse 11β-HSD1 (Mus musculus, UniProt P50172); assay: Enzyme inhibitory activity, mouse 11β-HSD1 (lysate of stably expressing CHO-K1 cells, cortisol by competitive ELISA); settings: Table 2; mouse 11β-HSD1, cell lysate, 37° C. for 1 hour; read-out: m HSD1 in vitro assay (IC50 uM)
T3 construct: The obtained PCR products of about 0.9 kbp, 1.2 kbp, and 0.9 kbp were subcloned into an expression vector pcDNA3.1+/Zeo; expressed in transfected cells
T3 sequence (P50172 whole entry): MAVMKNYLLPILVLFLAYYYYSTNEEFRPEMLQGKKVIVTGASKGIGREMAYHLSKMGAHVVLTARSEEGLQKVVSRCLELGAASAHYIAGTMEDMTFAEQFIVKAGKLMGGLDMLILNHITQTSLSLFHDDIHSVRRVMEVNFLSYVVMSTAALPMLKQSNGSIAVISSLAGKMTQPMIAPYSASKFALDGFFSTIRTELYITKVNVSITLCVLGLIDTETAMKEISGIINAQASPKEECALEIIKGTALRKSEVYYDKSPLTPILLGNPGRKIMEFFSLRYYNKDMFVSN
Summary of the method: as §1

Compound | IC50 (human 11β-HSD1; Table 1) | IC50 (human 11β-HSD2) | IC50 (mouse 11β-HSD1) | IC50 (human 11β-HSD1; Table 2)
CC1(C)C(=O)N(C2C3CC4CC(C3)CC2C4)N1C(=O)c1ccccc1F (stereo not drawn) [Example 119, 1-[(2-fluorophenyl)carbonyl]-4,4-dimethyl-2-(adamantan-2-yl)-1,2-diazetidin-3-one] | 0.72 µM | > 30 µM |  | 
CC1(C)C(=O)N(C2C3CC4CC(C3)CC2C4)N1C(=O)c1ccccc1Br (stereo not drawn) [Example 120, 1-[(2-bromophenyl)carbonyl]-4,4-dimethyl-2-(adamantan-2-yl)-1,2-diazetidin-3-one] | 0.27 µM | > 30 µM |  | 
CC1(C)C(=O)N(C2C3CC4CC(C3)CC2C4)N1C(=O)c1cccc2ccccc12 (stereo not drawn) [Example 141, 4,4-dimethyl-1-(naphthalen-1-ylcarbonyl)-2-(adamantan-2-yl)-1,2-diazetidin-3-one] | 0.071 µM | 14 µM |  | 
CC1(C)C(=O)N(C2C3CC4CC(C3)CC2C4)N1c1ccccc1 (stereo not drawn) [Example 181, 4,4-dimethyl-1-phenyl-2-(adamantan-2-yl)-1,2-diazetidin-3-one] | 0.062 µM | 3 to 30 µM |  | 
CC1(C)C(=O)N(C2C3CC4CC(C3)CC2C4)N1c1ccccc1Cl (stereo not drawn) [Example 189, 1-(2-chlorophenyl)-4,4-dimethyl-2-(adamantan-2-yl)-1,2-diazetidin-3-one] | 0.022 µM | 3 to 30 µM |  | 
CC1(C)C(=O)N(C2C3CC4CC(C3)CC2C4)N1c1cccc(Cl)c1 (stereo not drawn) [Example 190, 1-(3-chlorophenyl)-4,4-dimethyl-2-(adamantan-2-yl)-1,2-diazetidin-3-one] | 0.093 µM | 3 to 30 µM |  | 
COc1ccc(N2N(C3C4CC5CC(C4)CC3C5)C(=O)C2(C)C)cc1 (stereo not drawn) [Example 203, 1-(4-methoxyphenyl)-4,4-dimethyl-2-(adamantan-2-yl)-1,2-diazetidin-3-one] | 0.026 µM | > 30 µM |  | 
CC1(C)C(=O)N(C2C3CC4CC(C3)CC2C4)N1c1ccc(Cl)cc1Cl (stereo not drawn) [Example 208, 1-(2,4-dichlorophenyl)-4,4-dimethyl-2-(adamantan-2-yl)-1,2-diazetidin-3-one] | 0.02 µM | 3 to 30 µM |  | 
CC1(C)C(=O)N([C@H]2C3CC4CC2C[C@](O)(C4)C3)N1c1cccc(Cl)c1Cl [Example 231, trans-1-(2,3-dichlorophenyl)-2-(5-hydroxyadamantan-2-yl)-4,4-dimethyl-1,2-diazetidin-3-one] | 0.088 µM | > 30 µM |  | 
CC1(C)C(=O)N([C@H]2C3CC4CC2C[C@@](O)(C4)C3)N1c1cccc2ccccc12 [Example 247, cis-2-(5-hydroxyadamantan-2-yl)-4,4-dimethyl-1-(naphthalen-1-yl)-1,2-diazetidin-3-one] | 0.027 µM |  | 0.26 µM | 
CC1(C)C(=O)N([C@H]2C3CC4CC2C[C@@](O)(C4)C3)N1c1ccc2ccccc2c1 [Example 248, cis-2-(5-hydroxyadamantan-2-yl)-4,4-dimethyl-1-(naphthalen-2-yl)-1,2-diazetidin-3-one] | 0.028 µM | 3 to 30 µM |  | 
CC1(C)C(=O)N([C@H]2C3CC4CC2C[C@@](O)(C4)C3)N1c1ccc(F)c2ccccc12 [Example 249, cis-1-(4-fluoronaphthalen-1-yl)-2-(5-hydroxyadamantan-2-yl)-4,4-dimethyl-1,2-diazetidin-3-one] | 0.013 µM |  | 0.78 µM | 
COCOc1ccccc1N1N([C@H]2C3CC4CC2C[C@](Cl)(C4)C3)C(=O)C1(C)C [Example 252, trans-2-(5-chloroadamantan-2-yl)-1-[2-(methoxymethoxy)phenyl]-4,4-dimethyl-1,2-diazetidin-3-one] | 0.034 µM |  | 0.24 µM | 
CC1(C)C(=O)N([C@H]2C3CC4CC2C[C@](Cl)(C4)C3)N1c1cccc2ccccc12 [Example 254, trans-2-(5-chloroadamantan-2-yl)-4,4-dimethyl-1-(naphthalen-1-yl)-1,2-diazetidin-3-one] | 0.012 µM |  | 0.075 µM | 
CC1(C)C(=O)N([C@H]2C3CC4CC2C[C@](Cl)(C4)C3)N1c1ccc(F)c2ccccc12 [Example 255, trans-2-(5-chloroadamantan-2-yl)-1-(4-fluoronaphthalen-1-yl)-4,4-dimethyl-1,2-diazetidin-3-one] | 0.003 µM |  | 0.18 µM | 
CC1(C)C(=O)N([C@H]2C3CC4CC2C[C@@](Cl)(C4)C3)N1c1cccc2ccccc12 [Example 257, cis-2-(5-chloroadamantan-2-yl)-4,4-dimethyl-1-(naphthalen-1-yl)-1,2-diazetidin-3-one] | 0.24 µM |  | 0.24 µM | 
CC1(C)C(=O)N(C2C3CC4CC(C3)CC2C4)N1CCCc1ccccc1 (stereo not drawn) [Example 261, 4,4-dimethyl-1-(3-phenylpropyl)-2-(adamantan-2-yl)-1,2-diazetidin-3-one] |  |  | 0.7 µM | 0.45 µM
CC1(C)C(=O)N(C2C3CC4CC(C3)CC2C4)N1CCc1ccccc1 (stereo not drawn) [Example 266, 4,4-dimethyl-1-(2-phenylethyl)-2-(adamantan-2-yl)-1,2-diazetidin-3-one] |  |  | 0.47 µM | 0.55 µM
CC1(C)C(=O)N(C2C3CC4CC2CC(C(N)=O)(C4)C3)N1c1cccc2ccccc12 (stereo not drawn) [Example 273, cis-4-[2-(naphthalen-1-yl)-3,3-dimethyl-4-oxo-1,2-diazetidin-1-yl]adamantane-1-carboxamide] | 0.02 µM |  | 0.1 µM | 0.02 µM
CC1(C)C(=O)N([C@H]2C3CC4CC2C[C@](C(=O)O)(C4)C3)N1c1cccc2ccccc12 [Example 274, trans-4-[2-(naphthalen-1-yl)-3,3-dimethyl-4-oxo-1,2-diazetidin-1-yl]adamantane-1-carboxylic acid] | 0.011 µM |  | 0.25 µM | 
CC1(C)C(=O)N([C@H]2C3CC4CC2C[C@](C(N)=O)(C4)C3)N1c1cccc2ccccc12 [Example 275, trans-4-[2-(naphthalen-1-yl)-3,3-dimethyl-4-oxo-1,2-diazetidin-1-yl]adamantane-1-carboxamide] | 0.011 µM |  | 0.25 µM | 
CC1(C)C(=O)N(C2C3CC4CC2CC(C(N)=O)(C4)C3)N1c1cccc(Cl)c1Cl (stereo not drawn) [Example 276, cis-4-[2-(2,3-dichlorophenyl)-3,3-dimethyl-4-oxo-1,2-diazetidin-1-yl]adamantane-1-carboxamide] | 0.007 µM |  | 0.4 µM | 0.007 µM
CC1(C)C(=O)N([C@H]2C3CC4CC2C[C@](C(N)=O)(C4)C3)N1c1cccc(Cl)c1Cl [Example 277, trans-4-[2-(2,3-dichlorophenyl)-3,3-dimethyl-4-oxo-1,2-diazetidin-1-yl]adamantane-1-carboxamide] | 0.007 µM |  | 0.4 µM | 
